From patent US7049301B2, “Quercetin derivatives and their medical usages” (Academy of Military Medical Sciences Institute of …, priority 2001, dated 2006)
Where two headings read alike, the source gives them in different places.

What was measured:
mice = assay: Forced swimming test; format: in vivo; settings: for Duration of immobility: abdominal administration, last 4 of 6 minutes; for immobility time: oral
Description: (1) The test is carried out according to literature (Arch Int. Pharmacodn. Ther, 1977, 229(2): 327). 30 minutes after abdominal injection or 60 minutes after oral administration, the mice are put into an open glass box (19 cm high and 12 cm of diameter). Water inside the glass box is 8 cm in depth and 22˜23° C. in temperature. The mice are put into the water for 6 minutes and observed by Vidio movement analyzer, the accumulated immobility time of the mice during the last 4 minutes and their activity are analyzed identically as above.

[1] = system: PC-12 cells damaged by corticosterone; assay: Protection of PC-12 cells damaged by corticosterone (MTT); format: cell-based, rat; settings: for Absorbance (A): 10^−4 mol/L corticosterone, 48 h, MTT, 570 nm; for Increase of A (%): vs damaged control
Description: 3.2. Protection Effect of Compound of Formula I on PC-12 Cells Damaged by Corticosterone.
PC-12 cells are diluted into a suspension (2×10^5 cells/ml) with DMEM culture solution containing 5% calf serum and 5% horse serum, and then are transplanted into 96-well plates pretreated with polylysine, and cultivated under conditions of 37° C. and 5% CO2 for 2˜3 days. Cells are to grow all over the wells bottom before test. The culture solution is then pipetted away and serum-free DMEM is added containing certain concentration of test medicine and 10^−4 mol/L corticosterone, 10 μl of 5 mg/ml MTT is added 48 hours later to each well, shaking up slightly and, 4 hours later, 100 μl of 10% SDS is added to each well, again shaking up slightly. The plates are then left in the incubator overnight at 37° C.(about 8˜12 hours). After all the dark-blue crystals are dissolved, shaking up slightly and absorbance (A) of each sample at 570 nm is read using microplate reader.

adenylate cyclase (AC) = assay: Activation of adenylate cyclase (AC) in rat cerebral cortex synaptolemma, cAMP produced; format: biochemical; settings: for Amount of cAMP produced: X ± SD; for Activation of AC (in words): rat cerebral cortex synaptolemma
Description: 3.1 Effect on Activities of Adenylate Cyclase (AC) in Rat Cerebral Cortex:
Male Wistar rats weighed 200±20 g are sacrificed by decollation, and cerebral cortex is separated. Synaptolemma is extracted at 4° C. according to the method as described in literature (Rasenick M M et al, Pro. Natl. Acad. Sci. USA, 1980; 77:4628) and suspended in buffer solution, so that a protein concentration of 3˜5 mg/ml is reached. The synaptolemma has to be incubated in advance with the test medicine, as adenylate cyclase (AC) is located on it. The experiment is carried out as follows: portions of 100 μl reaction solution containing certain concentration of test medicine and 15 mmol/L HEPES, pH=7.5, 5 mmol/L MgCl2, 1 mmol/L EGTA, […], 60 mmol/L NaCl, 1 mmol/L aminophylline, 0.5 mg/ml phosphocreatine and 0.14 mg/ml phosphocreatine kinase are respectively dispensed into reaction tubes, followed by addition of 20 μg synaptolemma to each tube. Then, the tubes are immediately put into a water-bath at 30° C. to react for 10 minutes, which reaction is linear during the first 20 minutes. After that, all the reaction tubes are immediately transferred into boiling water and deposited for 3 minutes to terminate the reaction. The amount of cAMP thus produced is measured in an ice-bath environment with cAMP kit, the total reaction volume is 130 μL. The measure is carried out according to the instruction of the kit: various reagents are added and, after the reaction finishes, the tubes are centrifugated at 4000 rpm for 7 minutes. 120 μl supernatant is then pipetted into the measure cup, added afterwards with 1.5 ml anhydrous alcohol, after shaken up, 3.5 ml of scintillation solution is added. Then, the cups are sealed and shaken up, and are left overnight. The values of […] of all samples are determined then by Wallac 1409 liquid scintillation counter. The amount of cAMP produced can be calculated according to the standard curve and CPM. The results are statistically analyzed by ANOVA, and Dunnett's T test is made for inter-group comparison.

5HT1A receptor = molecular target: T1, 5HT1A receptor (Rattus norvegicus, UniProt P19327); assay: 5HT1A receptor test, competition with 3H-8-OH-DPAT on rat hippocampal membrane receptor; format: binding
T1 construct: 50 μl of 1:5 suspension of rat hippocampal membrane receptor; from tissue; host or cells: rat hippocampal membranes
T1 sequence (P19327 1-422): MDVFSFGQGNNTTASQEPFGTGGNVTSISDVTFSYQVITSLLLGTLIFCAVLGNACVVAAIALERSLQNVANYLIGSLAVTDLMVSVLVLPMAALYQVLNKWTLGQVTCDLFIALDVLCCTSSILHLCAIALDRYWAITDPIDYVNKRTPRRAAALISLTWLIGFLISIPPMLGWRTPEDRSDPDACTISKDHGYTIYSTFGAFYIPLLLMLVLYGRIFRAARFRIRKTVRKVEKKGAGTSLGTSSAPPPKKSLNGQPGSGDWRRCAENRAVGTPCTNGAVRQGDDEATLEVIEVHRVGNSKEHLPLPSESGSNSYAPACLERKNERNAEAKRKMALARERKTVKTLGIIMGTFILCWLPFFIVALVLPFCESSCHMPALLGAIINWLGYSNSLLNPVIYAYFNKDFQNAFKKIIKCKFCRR
Description: 20 μl of ^3H-8-OH-DPAT ([…]) and 20 μl of sample solutions of different concentrations are added into 50 μl of 1:5 suspension of rat hippocampal membrane receptor, followed by addition of buffer solution to make up to final volume of 200 μL. Then the above-mentioned suspension is shaken up and incubated in a water-bath at 25° C. for 30 minutes. After quick filtration by suction and washing the membrane receptors, radioactivity value is read by liquid scintillation counter. 20 μl of 5HT […] sulfate (1 mmol) solution is used instead to determine the non-specific conjugation. Buspirone, a partially activating agent of 5HT1A receptor, is used as the positive control. The competitive inhibition rate of the sample to ^3H-8-OH-DPAT is calculated according to the radioactivity value.

Which Duration of immobility (mice; 0.31 mg/kg) does the source give for `CC1OC(OC[C@H]2O[C@@H](Oc3c(-c4ccc(O)c(O)c4)oc4cc(O)cc(O)c4c3=O)[C@H](O[C@@H]3OC[C@](O)(CO)[C@H]3O)[C@@H](O)[C@@H]2O)C(O)C(O)C1O` (stereo in doubt) [Compound of formula I, quercetin-3-O-β-D-apiofuranosyl-(1→2)-[α-D-rhamnopyranosyl-(1→6)]-β-D-glucopyranoside] here?
The Duration of immobility was 148.69 ± 30.81 s.

And the Duration of immobility (mice; 0.31 mg/kg, listed as compound of formula I)?
The Duration of immobility was “shorten the immobility time”.

And the Duration of immobility (mice; 1.25 mg/kg)?
Its Duration of immobility is 149.94 ± 34.87 s.

What about the Duration of immobility (mice; 5.00 mg/kg) of the same compound?
The Duration of immobility was 134.38 ± 40.99 s.

What about the immobility time (mice; 3.75 mg/kg) of the same compound?
The immobility time was 95.2 ± 47.4 s.

What about the immobility time (mice; 7.5 mg/kg) of the same compound?
Its immobility time is 62.2 ± 45.9 s.

What about the immobility time (mice; 7.5 mg/kg, listed as compound of formula I) of the same compound?
Its immobility time is “shorten the immobility time”.

And the immobility time (mice; 15 mg/kg)?
Its immobility time is 53.6 ± 50.8 s.

What about the immobility time (mice; 30 mg/kg) of the same compound?
The immobility time was 111.5 ± 52.9 s.

What about the “Protection effect on PC-12 cells damaged by corticosterone (in words)” value [1] of the same compound?
The value was “strong protection effect”.

What about the “Absorbance (A)” value ([1]; 4.04 μmol·L^−1) of the same compound?
Its value is 0.74 ± 0.14.

And the “Increase of A (%)” value ([1]; 4.04 μmol·L^−1)?
Its value is 208.3%.

What about the “Absorbance (A)” value ([1]; 14.38 μmol·L^−1) of the same compound?
The value was 0.84 ± 0.08.

And the “Increase of A (%)” value ([1]; 14.38 μmol·L^−1)?
The value was 250.0%.

And the “Absorbance (A)” value ([1]; 40.43 μmol·L^−1)?
Its value is 0.86 ± 0.10.

What about the “Increase of A (%)” value ([1]; 40.43 μmol·L^−1) of the same compound?
The value was 258.3%.

What about the “Absorbance (A)” value ([1]; 134.77 μmol·L^−1) of the same compound?
Its value is 0.77 ± 0.11.

What about the “Increase of A (%)” value ([1]; 134.77 μmol·L^−1) of the same compound?
Its value is 220.8%.

And the “Absorbance (A)” value ([1]; 404.31 μmol·L^−1)?
The value was 0.61 ± 0.16.

And the “Increase of A (%)” value ([1]; 404.31 μmol·L^−1)?
Its value is 154.2%.

And the “Amount of cAMP produced” value (adenylate cyclase (AC); 13.5 μM (0.01 mg/ml))?
Its value is 23.27 ± 4.95 pmol/mg protein/minute.

What about the “Amount of cAMP produced” value (adenylate cyclase (AC); 13.5 μM (0.01 mg/ml), listed as compound of formula I) of the same compound?
The value was 23.27±4.95 pmol/mg protein/minute.

And the “Amount of cAMP produced” value (adenylate cyclase (AC); 40.5 μM)?
The value was 4.75 ± 6.33 pmol/mg protein/minute.

And the “Amount of cAMP produced” value (adenylate cyclase (AC); 135 μM)?
Its value is 43.42 pmol/mg protein/minute.

What about the “AC activation relative to same doses of imipramine and buspirone” value (adenylate cyclase (AC); 404 μM (0.3 mg/ml)) of the same compound?
The value was 2˜3 times.

And the “Activation effect on AC (cAMP produced)” value (adenylate cyclase (AC); 404 μM (0.3 mg/ml))?
Its value is 68.34±10.45 pmol/mg protein/minute.

And the “Amount of cAMP produced” value (adenylate cyclase (AC); 405 μM)?
Its value is 68.34 pmol/mg protein/minute.

What about the IC50 (5HT1A receptor) of the same compound?
Its IC50 is ~0.05 nM.

How did the “Amount of cAMP produced” value (adenylate cyclase (AC); 25 μM) turn out when `O=C1CC2(CCCC2)CC(=O)N1CCCCN1CCN(c2ncccn2)CC1` [buspirone] was run?
The value was 19.52 ± 5.46 pmol/mg protein/minute.

And the “Amount of cAMP produced” value (adenylate cyclase (AC); 100 μM)?
Its value is 19.71 ± 5.57 pmol/mg protein/minute.

And the “Amount of cAMP produced” value (adenylate cyclase (AC); 400 μM)?
The value was 24.63 pmol/mg protein/minute.

And the “Amount of cAMP produced” value (adenylate cyclase (AC); 1 mM)?
Its value is 33.00 pmol/mg protein/minute.

And the “Activation of AC (in words)” value (adenylate cyclase (AC))?
The value was “dose-dependently activate AC”.

For `CCOc1cc(OCC)c2c(=O)c(OC3OC(COC4OC(C)C(O)C(O)C4O)C(O)C(O)C3OC3OCC(O)(CO)C3O)c(-c3ccc(OCC)c(OCC)c3)oc2c1` [5,7,3′,4′,-tetraethoxyl flavonol-3-O-β-D-apiofuranosyl-(1→2)-[α-D-rhamnopyranosyl-(1→6)]-β-D-glucopyranoside], which IC50 (5HT1A receptor; competitive inhibition of 3H-8-OH-DPAT, rat hippocampal membrane, 25° C., 30 minutes, read-out: IC50) is on record?
The IC50 was ~0.2 nM.

What does the source list for `CN(C)CCCN1c2ccccc2CCc2ccccc21` [imipramine]?
Amount of cAMP produced (adenylate cyclase (AC); 25 μM): 15.07 ± 4.91 pmol/mg protein/minute; Amount of cAMP produced (adenylate cyclase (AC); 100 μM): 18.53 ± 3.2 pmol/mg protein/minute; Amount of cAMP produced (adenylate cyclase (AC); 400 μM): 30.32 pmol/mg protein/minute; Amount of cAMP produced (adenylate cyclase (AC); 1 mM): 79.79 pmol/mg protein/minute; Activation of AC (in words) (adenylate cyclase (AC)): dose-dependently activate AC
